The results in this text go back to US9440969B2, “Compounds and methods for kinase modulation, and indications therefor” (PLEXXIKON INC., priority 2009, dated 2016).

In assay [1] the target is B-Raf (Homo sapiens, UniProt P15056). The assay can be described thus: B-Raf kinase activity assay (AlphaScreen, biotin-MEK1 substrate). Conditions: 100 μM ATP, 100 nM biotin-MEK1, 45 minutes at room temperature; read-out: Biochemical activity (IC50 μM) B-Raf. An outline of the steps:
(§1)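 Each Raf enzyme (0.1 ng) phosphorylates 100 nM biotin-MEK1 in pH 7.0 HEPES with Mg2+/Mn2+, 100 μM ATP final, 45 min at room temperature. Phospho-MEK1/2 antibody with AlphaScreen beads is read after 3 h. IC50 comes from an 8-point dilution series.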
On the technique in general: Bead proximity is the source of the signal in Alpha formats.

Assay [2] deals with B-Raf V600E (Homo sapiens, UniProt P15056, V600E). The assay can be described thus: B-Raf V600E kinase activity assay (AlphaScreen, biotin-MEK1 substrate). To be noted: 100 μM ATP, 100 nM biotin-MEK1, 45 minutes at room temperature, read-out: Biochemical activity (IC50 μM) V600E. An outline of the steps:
as §1

Assay [3] concerns the target c-Raf-1 (Homo sapiens, UniProt P04049). The assay can be described thus: c-Raf-1 kinase activity assay (AlphaScreen, biotin-MEK1 substrate). To be noted: 100 μM ATP, 100 nM biotin-MEK1, 45 minutes at room temperature; read-out: Biochemical activity (IC50 μM) c-Raf-1. An outline of the steps:
as §1

The subject of assay [4] is A375 melanoma (B-Raf V600E mutation). Briefly: A375 cell growth inhibition (ATPlite luminescence). To be noted: Homo sapiens, A-375, 72 h, A375 cells, incubated 3 days with compound. Type of assay: cell-based. On the procedure: Compounds are assessed in a variety of cell based assays. For example human cell lines with B-Raf V600E mutation (A375 melanoma, SKMEL3 melanoma, and COLO205 colon adenocarcinoma), as well as tumorigenic cell lines with wild-type B-RAF (SW620 colon adenocarcinoma) or with Ras mutations (SKMEL2 melanoma and IPC298 melanoma). Similar assays may be used to assess additional tumorigenic cell lines with Ras mutations, including, but not limited to, M202, M207, M243, M244, M296, S117, HCT116, HCT15, DLD1, MiaPaCa, A549, NCI-H23, NCI-H460, HOP62, MDA-MB231, Hs-578T, HL60, MOLT-4, and CCRF-CEM.
On day 1, cells are counted, then centrifuged in a conical tube for 5 minutes at 1000 rpm. The supernatant is removed and cells are re-suspended as follows: • SW620 (ATCC catalog #CCL-27): resuspend in Leibovitz's L-15 medium, 2 mM L-glutamine, 10% fetal bovine serum to 6×10^4 cells/mL. • A375 (ATCC catalog #CRL-1619): resuspend in Dulbecco's modified Eagle's medium, 4 mM L-glutamine, 4.5 g/L D-glucose, 10% fetal bovine serum to 6×10^4 cells/mL. • COLO205 (ATCC catalog #CCL-222): resuspend in RPMI 1640, 2 mM L-glutamine, 1.5 g/L sodium bicarbonate, 4.5 g/L D-glucose, 10 mM HEPES, 1.0 mM sodium pyruvate, 10% fetal bovine serum to 6×10^4 cells/mL. • SKMEL2 (ATCC catalog #HTB-68): resuspend in Minimum Eagle essential medium, 2 mM L-glutamine, 1.5 g/L sodium bicarbonate, 0.1 mM non-essential amino acids, 1.0 mM sodium pyruvate, 10% fetal bovine serum to 6×10^4 cells/mL. • SKMEL3 (ATCC catalog #HTB-69): resuspend in McCoy's 5A medium, 1.5 mM L-glutamine, 15% fetal bovine serum to 6×10^4 cells/mL. • IPC298 (DSMZ catalog #ACC 251): resuspend in RPMI 1640, 2 mM L-glutamine, 10% fetal bovine serum to 6×10^4 cells/mL.
The cells are plated, 50 μL in each well of a 96-well dish (Corning 3610) and incubated at 37° C. in 5% CO2 overnight, cells plated to a final concentration of cells as follows:
On day 2, compound at a maximum concentration of 5 mM is serially diluted 1:3 (e.g. 10 μL with 30 μL dimethyl sulfoxide) for a total of 8 point titration with DMSO as a control. A 1 μL aliquot of each dilution point and control is added to 249 μL growth media and 50 μL is added to a well containing cells, providing 10 μM compound at the maximum concentration point. The cells are incubated for 3 days at 37° C. in 5% CO2.
On day 5, ATPlite 1 step Luminescence Assay System (Perkin Elmer #6016739) is brought to room temperature along with the cell cultures. ATPlite is added 25 μL to each well, shake for 2 minutes, and the cells are incubated at room temperature for 10 minutes, then luminescence is read on Safire reader. The measured luminescence correlates directly with cell number, such that the reading as a function of compound concentration is used to determine the IC50 value.
It is understood that the results of these assays may vary as assay conditions are varied. Inhibition levels determined under the conditions described herein represent a relative activity for the compounds tested under the specific conditions employed. The cell based assays are likely to show variability due to the complexity of the system and the sensitivity thereof to any changes in the assay conditions. […] Results for compounds that are tested and show substantially no inhibition below the highest tested concentration are represented as “-” in the tables below. In some instances, the compounds were not tested in all of the assays, or assay results were not valid, as indicated by NA in the tables below.
A general note: Cellular ATP, detected with luciferase, serves as a proxy for viable cell number.

Assay [5] relates to COLO205 colon adenocarcinoma (B-Raf V600E mutation). Briefly: COLO205 cell growth inhibition (ATPlite luminescence). In kind it is cell-based. To be noted: Homo sapiens, COLO 205, 72 h, COLO205 cells, incubated 3 days with compound. In outline:
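Cells seeded at 6×10^4 cells/mL in line-specific medium with 10% FBS, held overnight at 37°C, then given an 8-point 1:3 compound titration (top 10 μM final) for 3 days at 37°C, 5% CO2. ATP content read by ATPlite luminescence as a cell-number proxy; IC50 fitted from luminescence versus concentration.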

Sequence of B-Raf V600E (P15056 whole entry V600E): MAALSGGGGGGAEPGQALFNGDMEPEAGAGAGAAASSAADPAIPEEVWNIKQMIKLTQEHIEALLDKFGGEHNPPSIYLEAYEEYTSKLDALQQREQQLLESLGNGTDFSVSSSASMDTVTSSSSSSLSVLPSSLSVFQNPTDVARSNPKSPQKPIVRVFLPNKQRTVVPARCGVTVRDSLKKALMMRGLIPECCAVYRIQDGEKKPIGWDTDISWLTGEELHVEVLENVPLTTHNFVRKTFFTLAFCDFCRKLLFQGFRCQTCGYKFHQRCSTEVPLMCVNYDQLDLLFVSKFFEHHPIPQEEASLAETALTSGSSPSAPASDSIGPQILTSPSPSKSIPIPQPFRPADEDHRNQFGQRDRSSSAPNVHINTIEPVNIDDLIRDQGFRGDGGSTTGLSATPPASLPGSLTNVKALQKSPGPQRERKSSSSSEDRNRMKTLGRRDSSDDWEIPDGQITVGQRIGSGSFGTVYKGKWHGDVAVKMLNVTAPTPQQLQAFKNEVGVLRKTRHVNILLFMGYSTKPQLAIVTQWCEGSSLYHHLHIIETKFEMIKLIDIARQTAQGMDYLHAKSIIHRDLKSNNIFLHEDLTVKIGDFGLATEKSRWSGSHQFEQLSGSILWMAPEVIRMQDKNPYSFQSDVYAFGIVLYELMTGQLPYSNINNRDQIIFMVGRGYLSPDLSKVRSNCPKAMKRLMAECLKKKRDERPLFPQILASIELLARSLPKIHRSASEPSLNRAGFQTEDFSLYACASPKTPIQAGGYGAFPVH
Sequence of B-Raf (P15056 whole entry): as the sequence (P15056 whole entry V600E) above, with E600V counted along it
Sequence of c-Raf-1 (P04049 whole entry Y340D/Y341D, form open): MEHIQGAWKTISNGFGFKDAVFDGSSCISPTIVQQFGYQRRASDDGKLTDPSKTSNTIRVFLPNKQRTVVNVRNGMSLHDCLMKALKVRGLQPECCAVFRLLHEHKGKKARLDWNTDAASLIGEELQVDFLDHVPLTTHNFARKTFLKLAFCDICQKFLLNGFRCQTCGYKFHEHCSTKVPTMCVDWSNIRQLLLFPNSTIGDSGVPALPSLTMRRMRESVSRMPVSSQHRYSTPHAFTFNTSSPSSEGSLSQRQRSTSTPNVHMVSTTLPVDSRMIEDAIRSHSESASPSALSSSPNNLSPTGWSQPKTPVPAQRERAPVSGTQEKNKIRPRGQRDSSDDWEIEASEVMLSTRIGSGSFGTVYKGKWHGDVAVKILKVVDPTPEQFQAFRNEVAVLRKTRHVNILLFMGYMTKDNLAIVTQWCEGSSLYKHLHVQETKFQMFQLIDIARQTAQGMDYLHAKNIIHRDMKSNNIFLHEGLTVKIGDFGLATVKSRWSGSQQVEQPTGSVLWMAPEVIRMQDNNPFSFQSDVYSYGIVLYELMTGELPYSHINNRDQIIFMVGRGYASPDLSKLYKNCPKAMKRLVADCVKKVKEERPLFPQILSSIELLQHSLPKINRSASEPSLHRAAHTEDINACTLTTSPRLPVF

In the case of `CCCS(=O)(=O)Nc1ccc(F)c(C(=O)c2c[nH]c3ncc(-c4cnc(-n5ccccc5=O)cn4)cc23)c1F` [P-1600, Propane-1-sulfonic acid (2,4-difluoro-3-{5-[5-(2-oxo-2H-pyridin-1-yl)-pyrazin-2-yl]-1H-pyrrolo[2,3-b]pyridine-3-carbonyl}-phenyl)-amide], the IC50 in assay [1] is less than 0.1 µM; in assay [2], less than 0.1 µM; in assay [3] it was less than 0.1 µM; in assay [4], more than 1 µM; in assay [5], less than 1 µM.

By IC50 is commonly meant the concentration that gives 50% inhibition.
